pIC50: −log10 of the molar value.
Target: T1, Human Factor D (Homo sapiens, UniProt P00746)
T1 construct: purified from human serum; purchased Complement Technology, Inc; host or cells: human serum (natural protein, not recombinant)
Assay: Human Factor D Assay
Type: biochemical
Conditions: Human Factor D 80 nM, substrate Z-L-Lys-SBzl, assay of Example 3; read-out: IC50 (Stars)
Outline: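 Serum-purified human factor D (80 nM final) preincubated 5 min at room temperature with test compound in 50 mM Tris, 1M NaCl, pH 7.5. Z-L-Lys-SBzl substrate and DTNB then added, each at 100 μM final. IC50 from nonlinear regression of reaction rate against compound concentration.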

T1 sequence (P00746 26-253): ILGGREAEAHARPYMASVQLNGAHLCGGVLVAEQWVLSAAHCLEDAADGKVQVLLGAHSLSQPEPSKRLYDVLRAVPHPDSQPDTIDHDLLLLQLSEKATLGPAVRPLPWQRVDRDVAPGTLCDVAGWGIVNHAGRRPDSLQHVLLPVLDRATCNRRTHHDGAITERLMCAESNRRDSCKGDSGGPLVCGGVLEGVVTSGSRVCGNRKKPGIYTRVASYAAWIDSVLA

| Structure (SMILES) | pIC50 |
| --- | --- |
| CC(=O)c1nn(CC(=O)N2[C@H](C(=O)N[C@H](C)C(C)C)C[C@@]3(C)C[C@@H]23)c2ccc(-c3cnc(C)nc3)cc12 [Compound 14, (1R,3S,5R)-2-(2-(3-Acetyl-5-(2-methylpyrimidin-5-yl)-1H-indazol-1-yl)acetyl)-5-methyl-N—((R)-3-methylbutan-2-yl)-2-azabicyclo[3.1.0]hexane-3-carboxamide] | > 6.00 |
| CC(=O)c1nn(CC(=O)N2[C@H](C(=O)N[C@@H](C)CCc3ccccc3)C[C@@]3(C)C[C@@H]23)c2ccc(-c3cnc(C)nc3)cc12 [Compound 12, (1R,3S,5R)-2-(2-(3-Acetyl-5-(2-methylpyrimidin-5-yl)-1H-indazol-1-yl)acetyl)-5-methyl-N—((S)-4-phenylbutan-2-yl)-2-azabicyclo[3.1.0]hexane-3-carboxamide] | > 6.00 |
| CC(=O)c1nn(CC(=O)N2[C@H](C(=O)NCCc3cc(Cl)ccc3Cl)C[C@@]3(C)C[C@@H]23)c2c(C)cc(-c3cnc(C)nc3)cc12 [Compound 4, (1R,3S,5R)-2-(2-(3-Acetyl-7-methyl-5-(2-methylpyrimidin-5-yl)-1H-indazol-1-yl)acetyl)-N-(2,5-dichlorophenethyl)-5-methyl-2-azabicyclo[3.1.0]hexane-3-carboxamide] | > 6.00 |
| CC(=O)c1nn(CC(=O)N2[C@H](C(=O)Nc3nc(Br)ccc3C)C[C@@]3(CO)C[C@@H]23)c2ccc(-c3cnc(CO)nc3)cc12 [Compound 32, (1R,3S,5S)-2-(2-(3-Acetyl-5-(2-(hydroxymethyl)pyrimidin-5-yl)-1H-indazol-1-yl)acetyl)-N-(6-bromo-3-methylpyridin-2-yl)-5-(hydroxymethyl)-2-azabicyclo[3.1.0]hexane-3-carboxamide] | > 6.00 |
| CC(=O)c1nn(CC(=O)N2[C@H](C(=O)NCCc3ccccc3Cl)C[C@@]3(C)C[C@@H]23)c2c(C)cc(-c3cnc(C)nc3)cc12 [Compound 3, (1R,3S,5R)-2-(2-(3-Acetyl-7-methyl-5-(2-methylpyrimidin-5-yl)-1H-indazol-1-yl)acetyl)-N-(2-chlorophenethyl)-5-methyl-2-azabicyclo[3.1.0]hexane-3-carboxamide] | > 6.00 |

Same assay, conditions: Human Factor D 80 nM, substrate Z-L-Lys-SBzl; Table 2; read-out: IC50 (Stars)

| Structure (SMILES) | pIC50 |
| --- | --- |
| CC(=O)c1cn(CC(=O)N2[C@H](C(=O)Nc3nccc(C(F)(F)F)n3)C[C@@]3(C)C[C@@H]23)c2c(C)cc(-c3cnc(C)nc3)cc12 [Compound 235, (1R,3S,5R)-2-(2-(3-acetyl-7-methyl-5-(2-methylpyrimidin-5-yl)-1H-indol-1-yl)acetyl)-5-methyl-N-(4-(trifluoromethyl)pyrimidin-2-yl)-2-azabicyclo[3.1.0]hexane-3-carboxamide] | > 6.00 |
| CC(=O)c1nn(CC(=O)N2[C@H](C(=O)NCCC3CCC3)C[C@@]3(C)C[C@@H]23)c2c(C)cc(-c3cnc(C)nc3)cc12 [Compound 104, (1R,3S,5R)-2-{2-[3-acetyl-7-methyl-5-(2-methylpyrimidin-5-yl)indazol-1-yl]acetyl}-N-(2-cyclobutylethyl)-5-methyl-2-azabicyclo[3.1.0]hexane-3-carboxamide] | > 6.00 |
| Cc1ncc(-c2ccc3c(c2)c(C2OCCO2)nn3CC(=O)N2[C@H](C(=O)Nc3nc(Br)ccc3C)C[C@@]3(C)C[C@@H]23)cn1 [Compound 143, (1R,3S,5R)-2-(2-(3-(1,3-dioxolan-2-yl)-5-(2-methylpyrimidin-5-yl)-1H-indazol-1-yl)acetyl)-N-(6-bromo-3-methylpyridin-2-yl)-5-methyl-2-azabicyclo[3.1.0]hexane-3-carboxamide] | > 6.00 |
| CC(=O)c1cn(CC(=O)N2[C@H](C(=O)Nc3nc(C(F)(F)F)ccc3C)C[C@@]3(C)C[C@@H]23)c2c(C)nc(-c3cnc(C)nc3)cc12 [Compound 200, (1R,3S,5R)-2-{2-[3-acetyl-7-methyl-5-(2-methylpyrimidin-5-yl)pyrrolo[2,3-c]pyridin-1-yl]acetyl}-5-methyl-N-[3-methyl-6-(trifluoromethyl)pyridin-2-yl]-2-azabicyclo[3.1.0]hexane-3-carboxamide] | > 6.00 |
| Cc1cc(F)c(Br)nc1NC(=O)[C@@H]1[C@@H]2C[C@@H]2CN1C(=O)Cn1nc(C(N)=O)c2cc(-c3cnc(CO)nc3)nc(C)c21 [Compound 168, 1-(2-((1R,2S,5S)-2-((6-bromo-5-fluoro-3-methylpyridin-2-yl)carbamoyl)-3-azabicyclo[3.1.0]hexan-3-yl)-2-oxoethyl)-5-(2-(hydroxymethyl)pyrimidin-5-yl)-7-methyl-1H-pyrazolo[3,4-c]pyridine-3-carboxamide] | > 6.00 |
| COc1cc(Br)nc(NC(=O)[C@@H]2[C@@H]3C[C@@H]3CN2C(=O)Cn2nc(C(C)=O)c3cc(-c4cnc(CO)nc4)cc(C)c32)c1 [Compound 73, (1R,2S,5S)-3-(2-(3-acetyl-5-(2-(hydroxymethyl)pyrimidin-5-yl)-7-methyl-11H-indazol-1-yl)acetyl)-N-(6-bromo-4-methoxypyridin-2-yl)-3-azabicyclo[3.1.0]hexane-2-carboxamide] | > 6.00 |
| CC(=O)c1nn(CC(=O)N2[C@H](C(=O)Nc3nc(Br)c(F)cc3C)C[C@@]3(C)C[C@@H]23)c2c(C)cc(-c3cnc(C(C)O)nc3)cc12 (stereo partly drawn) [Compound 96, (1R,3S,5R)-2-(2-(3-acetyl-5-(2-(1-hydroxyethyl)pyrimidin-5-yl)-7-methyl-11H-indazol-1-yl)acetyl)-N-(6-bromo-5-fluoro-3-methylpyridin-2-yl)-5-methyl-2-azabicyclo[3.1.0]hexane-3-carboxamide] | > 6.00 |
| CC(=O)c1nn(CC(=O)N2[C@H]3CC[C@H](C3)[C@H]2C(=O)Nc2nc(Br)ccc2C)c2c(C)cc(-c3cnc(C)nc3)cc12 [Compound 99, (1S,3S,4R)-2-(2-(3-Acetyl-7-methyl-5-(2-methylpyrimidin-5-yl)-1H-indazol-1-yl)acetyl)-N-(6-bromo-3-methylpyridin-2-yl)-2-azabicyclo[2.2.1]heptane-3-carboxamide] | > 6.00 |

Other lines, results leading:

| pIC50 | Structure (SMILES) |
| --- | --- |
| > 6.00 | CC(=O)c1nn(CC(=O)N2[C@H](C(=O)NC(C)Cc3ccco3)C[C@@]3(C)C[C@@H]23)c2c(C)cc(-c3cnc(C)nc3)cc12 (stereo partly drawn) [Compound 180, (1R,3S,5R)-2-{2-[3-acetyl-7-methyl-5-(2-methylpyrimidin-5-yl)indazol-1-yl]acetyl}-N-[1-(furan-2-yl)propan-2-yl]-5-methyl-2-azabicyclo[3.1.0]hexane-3-carboxamide] |
| > 6.00 | CC(=O)c1nn(CC(=O)N2[C@H]3CC[C@H](C3)[C@H]2C(=O)Nc2nc(Br)c(F)cc2C)c2c(C3CC3)cc(-c3cnc(C)nc3)cc12 [Compound 122, (1S,3S,4R)-2-(2-(3-Acetyl-7-cyclopropyl-5-(2-methylpyrimidin-5-yl)-1H-indazol-1-yl)acetyl)-N-(6-bromo-5-fluoro-3-methylpyridin-2-yl)-2-azabicyclo[2.2.1]heptane-3-carboxamide] |
| > 6.00 | CC(=O)c1nn(CC(=O)N2[C@H](C(=O)Nc3nc(Br)c(F)cc3C)C[C@@]3(C)C[C@@H]23)c2c(C)cc(-c3cnc(C(=O)O)nc3)cc12 [Compound 45, 5-(3-acetyl-1-(2-((1R,3S,5R)-3-((6-bromo-5-fluoro-3-methylpyridin-2-yl)carbamoyl)-5-methyl-2-azabicyclo[3.1.0]hexan-2-yl)-2-oxoethyl)-7-methyl-1H-indazol-5-yl)pyrimidine-2-carboxylic acid] |
| > 6.00 | CC(=O)c1nn(CC(=O)N2C[C@H]3C[C@H]3[C@H]2C(=O)Nc2nc(Br)c(F)cc2C)c2c(C)cc(-c3cnc(C(C)O)nc3)cc12 (stereo partly drawn) [Compound 165, (1R,2S,5S)-3-(2-(3-acetyl-5-(2-(1-hydroxyethyl)pyrimidin-5-yl)-7-methyl-1H-indazol-1-yl)acetyl)-N-(6-bromo-5-fluoro-3-methylpyridin-2-yl)-3-azabicyclo[3.1.0]hexane-2-carboxamide] |
| > 6.00 | CC(=O)c1nn(CC(=O)N2[C@H](C(=O)N[C@H](CO)Cc3ccccc3)C[C@@]3(C)C[C@@H]23)c2c(C)cc(-c3cnc(C)nc3)cc12 [Compound 146, (1R,3S,5R)-2-{2-[3-acetyl-7-methyl-5-(2-methylpyrimidin-5-yl)indazol-1-yl]acetyl}-N-[(2S)-1-hydroxy-3-phenylpropan-2-yl]-5-methyl-2-azabicyclo[3.1.0]hexane-3-carboxamide] |
| > 6.00 | CC(=O)c1nn(CC(=O)N2[C@H](C(=O)Nc3nc(Br)ccc3C)C[C@@]3(C)C[C@@H]23)c2c(C)cc(-c3cnc(CF)nc3)cc12 [Compound 208, (1R,3S,5R)-2-(2-(3-acetyl-5-(2-(fluoromethyl)pyrimidin-5-yl)-7-methyl-1H-indazol-1-yl)acetyl)-N-(6-bromo-3-methylpyridin-2-yl)-5-methyl-2-azabicyclo[3.1.0]hexane-3-carboxamide] |
| > 6.00 | CC(=O)c1nn(CC(=O)N2[C@H](C(=O)NC(C)Cc3ccsc3)C[C@@]3(C)C[C@@H]23)c2c(C)cc(-c3cnc(C)nc3)cc12 (stereo partly drawn) [Compound 183, (1R,3S,5R)-2-{2-[3-acetyl-7-methyl-5-(2-methylpyrimidin-5-yl)indazol-1-yl]acetyl}-5-methyl-N-[1-(thiophen-3-yl)propan-2-yl]-2-azabicyclo[3.1.0]hexane-3-carboxamide] |
| > 6.00 | CC(=O)c1nn(CC(=O)N2[C@H](C(=O)NC(C)Cc3cnccn3)C[C@@]3(C)C[C@@H]23)c2c(C)cc(-c3cnc(C)nc3)cc12 (stereo partly drawn) [Compound 188, (1R,3S,5R)-2-{2-[3-acetyl-7-methyl-5-(2-methylpyrimidin-5-yl)indazol-1-yl]acetyl}-5-methyl-N-[1-(pyrazin-2-yl)propan-2-yl]-2-azabicyclo[3.1.0]hexane-3-carboxamide] |
| > 6.00 | CC(=O)c1nn(CC(=O)N2[C@H](C(=O)N[C@H](C)C(F)(F)F)C[C@@]3(C)C[C@@H]23)c2c(C)cc(-c3cnc(C)nc3)cc12 [Compound 152, (1R,3S,5R)-2-{2-[3-acetyl-7-methyl-5-(2-methylpyrimidin-5-yl)indazol-1-yl]acetyl}-5-methyl-N-[(2R)-1,1,1-trifluoropropan-2-yl]-2-azabicyclo[3.1.0]hexane-3-carboxamide] |
